System: fever induced by lipopolysaccharide (LPS)
Experiment: LPS-induced fever, antipyretic effect of leaf extract (Example 9-1)
Assay type: in vivo, Sprague-Dawley male white rats
Description: Test animals were used to determine antipyretic effects of the Stauntonia Hexaphylla leaf extract and fractions thereof prepared in Example 1.
The test animals herein used were 5-week old Sprague-Dawley male white mice obtained from Samtako Inc. (Korea). The test animals were bred at a temperature of 20° C. to 24° C. and at a humidity of 60% to 70% under the day-night illumination condition at 12-hour intervals and were freely fed with water and feed. The feed used herein was a solid feed (Samyang Feed Co., Korea). The test animals were bred under the same conditions for 7 days, adapted to laboratory environments and then used for testing.
Specifically, 5 mice were randomly selected from the test animals and set as a first group, and 500 μg/kg of lipopolysaccharide (LPS, Sigma, USA) was intraperitoneally injected into the mice to induce fever. Body temperature was measured as follows. Rectal body temperature was measured using a rectal thermometer (Portable Thermocouple Thermometer (Physitemp Instruments, USA) and a stainless steel rectal probe for rats (Physitemp Instruments, USA) and body temperatures of SD mice were measured three times before the test to minimize an temperature increase caused by temperature measurement stress.
First, in order to determine antipyretic effects of the Stauntonia Hexaphylla leaf hot water extract, a negative control group (LPS) not treated with any sample, a first positive control group (APAP) orally administered with 50 mg/kg of acetaminophen (APAP, Sigma, USA), a conventional drug, found to have antipyretic effect, and a second positive control group (Dexamethasone) orally administered with 1 mg/kg of dexamethasone (Sigma, USA) were used.
First, 500 μg/kg of a fever-inducing substance (LPS) was intraperitoneally injected (i.p.) into the test animals that finished preparations for minimization of temperature increase caused by temperature measurement stress, and a non-treated group (LPS), a group (SHL-200) orally administered with 200 mg/kg of the Stauntonia Hexaphylla leaf hot water extraction, a group (APAP) orally administered with 50 mg/kg of acetaminophen, and a group (Dexamethasone) orally administered with 1 mg/kg of dexamethasone were prepared according to type of test groups. In addition, 200 mg/kg of the Stauntonia Hexaphylla leaf hot water extract was orally administered one hour after administration of the fever-inducing substance (SHL-200 (1 h)), and rectal temperatures were measured at one hour, 4 hours and 8 hours over 8 hours in total after the administration of the fever-inducing substance. The measurement results are shown in FIG. 12 and the following Table 3. Values of the following Table 3 mean body temperatures (° C.) measured at different times.

| SMILES | body temperature (rectal) (0 h, 50 mg/kg oral with LPS 500 μg/kg i.p.) | body temperature (rectal) (1 h, 50 mg/kg oral with LPS 500 μg/kg i.p.) | body temperature (rectal) (4 h, 50 mg/kg oral with LPS 500 μg/kg i.p.) | body temperature (rectal) (8 h, 50 mg/kg oral with LPS 500 μg/kg i.p.) | body temperature (rectal) (0 h, 1 mg/kg oral with LPS 500 μg/kg i.p.) | body temperature (rectal) (1 h, 1 mg/kg oral with LPS 500 μg/kg i.p.) | body temperature (rectal) (4 h, 1 mg/kg oral with LPS 500 μg/kg i.p.) | body temperature (rectal) (8 h, 1 mg/kg oral with LPS 500 μg/kg i.p.) |
| --- | --- | --- | --- | --- | --- | --- | --- | --- |
| CC(=O)Nc1ccc(O)cc1 [APAP, acetaminophen] | 37.2 °C | 36.58 ± 0.67 °C | 37.53 ± 0.59 °C | 37.78 ± 0.13 °C |  |  |  |  |
| C[C@@H]1C[C@H]2[C@@H]3CCC4=CC(=O)C=C[C@]4(C)[C@@]3(F)[C@@H](O)C[C@]2(C)[C@@]1(O)C(=O)CO [Dexamethasone, dexamethasone] |  |  |  |  | 37.2 °C | 37.3 ± 0.52 °C | 37.6 ± 0.12 °C | 37.73 ± 0.13 °C |

Source: patent US9370542B2, “Medical composition containing Stauntonia hexaphylla extract” (JEONNAM BIOINDUSTRY FOUNDATION, priority 2011, dated 2016)
